These results are taken from patent US20160220582A1, “COMBINATION OF LUPEOL ACETATE AND CURCUMIN USED FOR THE TREATMENT OR PREVENTION OF ACTIVATED OSTEOCLAST PRECURSOR ASSOCIATED DISORDERS” (priority 2015, published 2016).

For series [1], the system named is collagen-induced arthritis (CIA) mice. The series is described as follows: Histopathology of joints (H & E stain) in CIA mice. The conditions noted are these: day 43. Format: in vivo, DBA/1J mice. The source says: To investigate the therapeutic efficacy of LA combined with curcumin on the histological damage in CIA mice, the mice were scarified on day 43 after arthritis induction. The joints of four limb of each mouse were excised and fixed with paraformaldehyde then embedded by paraffin and sectioned. Slides were stained with haematoxylin and eosin (H & E), and were observed under microscope.

For series [2] the following is noted: clinical application; cited from earlier work.
Series [3] relates to arthritis. The conditions noted are these: mice; cited from earlier work.
Series [4] concerns collagen-induced arthritis (CIA) mice. The series can be described thus: Micro-CT bone density of femur in CIA mice. Format: in vivo, DBA/1J mice. The note with it: day 32, 39 and 43. The method, then: Micro-CT images were acquired from the Tri-Modality FLEX Triumph™ Pre-Clinical Imaging System (Gamma MedicaIdeas; Northridge, Calif.). The ROI was analyzed visually in three different slices: transverse, coronal, and sagittal. Individual ROI was used to create 3D representations of the bones of interest. For each specific bone ROI, the total number of pixels and mean pixel intensity across all slices were used to measure bone volume and density.

The test system is the same in series [5]. The series can be described thus: 18F-FDG PET of joints in CIA mice. The format is in vivo, DBA/1J mice. The source says: Apart from blood analysis, current clinical diagnosis will also use X-ray as an evaluation basis. Since X-ray image can only diagnose rheumatoid arthritis when the bone has been damaged severely at late stage, it could not be an effective evaluation tool. ^18F-FDG can be used as a tracer to observe and evaluate its accumulation during rheumatoid arthritis.
Repeated ^18F-FDG PET in vivo determination of disease severity in knee joints and paws on 20, 25, 32, 39 and 43 days after arthritis induction. Mice were anesthetized using 1-3% isoflurane and were intravenous injected with 0.5 mCi/100 μl (18.5 MBq) of ^18F-FDG 40 min before images acquisition. The emission scans were performed using an animal micro/PET scan (Tri-Modality FLEX Triumph™ Pre-Clinical Imaging System). All images were acquired for 40 min and reconstructed by software supplied by the manufacturer. The ROIs were selected, and the accumulation of ^18F-FDG of each ROI was further analyzed by Amide software.

Series [6] can be described thus: Body weight tracking in CIA mice. The format is in vivo. On the procedure:
Eight-week-old DBA/1J mice (purchased from Jackson lab, ME, USA and housed in the Animal center of National Yang Ming University under pathogen-free conditions according to the Institutional Animal Care and Committee guidelines) were used. 100 μl of arthritis-inducing adjuvant (prepared by mixing Complete Freund's Adjuvant (5 mg/ml heat-killed M. tuberculosis in incomplete Freund's Adjuvant) (Chondrex, WA, USA) with equal volume of bovine type II collagen (2 mg/ml solution in 0.05 M acetic acid) (Chondrex, WA, USA)) is injected into the dermis of tail (intra-dermal, i.d.) using a 30 G syringe; and a 50 μl second dose of same ingredients is injected in the same way at an interval of 21 days. The symptoms are produced at about six days after the second dose injection, with an induction rate of 100%. The CIA mice were established and treated with LA 25 mg/kg alone, LA 50 mg/kg alone, Cur 50 mg/kg alone and LA 25 mg/kg+Cur 50 mg/kg after second immunization once per day. Using animals treated with deionized distilled water (ddH2O) containing 0.1% dimethyl sulfoxide (DMSO, Sigma, USA) as the normal mice group. Signs of arthritis were monitored until Day 43.

For series [7], the system named is rheumatoid arthritis. The note with it: mice; high doses (100 mg/kg, 12 days) necessary; US 20120177754; cited from earlier work.
Series [8] relates to NF-κB. The series can be described thus: Ex vivo electrophoretic mobility shift assay (EMSA). Format: in vivo, DBA/1J mice. The method, then:
The LightShift Chemiluminescent EMSA kit (Pierce, Rockford, Ill., USA) was used in the analysis for NF-κB/DNA binding activity. Nuclear extracts were incubated with the biotin labeled DNA probes at room temperature for 20 minutes. The separated DNA/protein complexes from the free oligonucleotide on 10% polyacrylamide gel were transferred to a nylon membrane. The nylon membrane was immersed in ECL (Pierce, Rockford, Ill., USA) and reacted to emit cold light (luminescence), and then exposed to the film for the observation of NF-κB activity. Using IMAGE J software (National Institutes of Health), the obtained images were quantified to blackening degree; the blackening degree of the protein to be observed is divided by the value obtained in the control group to compare the differences of each group in the expression level of nuclear proteins.

Series [9] deals with collagen-induced arthritis (CIA) mice. The series can be described thus: Ex vivo Western blotting of leg proteins of CIA mice. The format is in vivo, DBA/1J mice. The note with it: day 32. On the procedure: The mice were sacrificed by cervical dislocation on the 32nd day of the animal experiment. The whole leg of mouse was removed, and the leg tissue was ground by adding an appropriate amount of lysis buffer (tissue protein extraction reagent, T-PER, Pierce Protein Biology Products, IL, USA), centrifuged at 15,000 rpm for 20 minutes, and the supernatant is taken as the sample for each group.
Mice were sacrificed at the peak of arthritis (on day 32), the protein extraction was isolated from legs of each group.
(In general: In western blotting, separated proteins are transferred to a membrane and probed.)

Series [10] relates to RAW 264.7 cells. The series is described as follows: MTT cell viability assay. The note with it: RAW264.7, 24 h; LA 10-80 μM, Cur 2.5-10 μM, 10 μM Cur+10-80 μM LA. On the procedure: RAW 264.7 cells (a mouse macrophage cell line) were treated with different concentrations of lupeol acetate (10, 20, 40, 80 μM), curcumin (2.5, 5, 7.5, 10 μM) and combination (10 μM Cur+10 μM LA, 10 μM Cur+20 μM LA, 10 μM Cur+40 μM LA, 10 μM Cur+80 μM LA) for 24 h.
5×10^4 RAW264.7 cells/well were seeded in 96-well culture dishes, and treated with directed concentration of lupeol acetate (LA), curcumin (Cur) and combination for 24 hours after the 24-hr attachment. After removing the culture medium, 100 μl of 0.5 mg/ml MTT solution was added, and the cells were incubated at 37° C. for 4 hours. The mitochondrial enzyme (succinate dehydrogenase, SDH) in living cells will react with tetrazolium bromide in the MTT solution and form formazan blue-purple crystals. The MTT solution was removed and 200 μl DMSO was added to dissolve the blue-purple crystal, and then the O.D. (optical density) value was read under wavelength of 570 nm with an ELISA reader (TECAN Sunrise, USA). The relative cell viability is calculated by comparing the absorbance value of drug treated group with that of the control group (setting the value of control group as 100%).
Background: Tetrazolium dyes change colour on reduction, which living cells bring about.

The test system of series [11] is inflammatory condition induced by carrageenan. The conditions noted are these: mice; Lucetti et al. 2010; cited from earlier work.

For `COc1cc(/C=C/C(=O)CC(=O)/C=C/c2ccc(O)c(OC)c2)ccc1O` [Cur, curcumin], in series [1] (50 mg/kg), the “histopathology of joints: immune cell infiltration and cartilage destruction” value is “moderate immune cell infiltration and cartilage destruction”. The bioavailability entry in series [2] is “poor bioavailability”. Moreover, in series [3], the “occurrence of inflammation and progression of arthritis” value is listed as “inhibit”. The “bone density of femur vs CIA mice” value in series [4] is reported as “significantly higher”. Moreover, the “18F-FDG accumulation in knee and tarsal joint / leg swelling” value in series [5] (50 mg/kg alone) is listed as “still have leg swelling on one side”. In addition, the “tolerability / general toxicity” value in series [6] (mouse, in vivo) was “well-tolerated”.
For lupeol acetate [LA], the “histopathology of joints: immune cell infiltration and cartilage destruction” value in [1] (25 mg/kg) was “moderate immune cell infiltration and cartilage destruction”; in series [1] (50 mg/kg), “no inflammation and cartilage destruction”. Moreover, the “inhibiting inflammation and treatment of rheumatoid arthritis” value in [7] was “significant therapeutic effect”. For the same compound, the “activation of NF-κB” value in series [8] (LA25 (25 mg/kg)) and in series [8] (LA50 (50 mg/kg)) was “significantly suppressed” in each case. The “bone density of femur vs CIA mice” value in series [4] was “significantly higher”. For the same compound, the “18F-FDG accumulation in knee and tarsal joint / leg swelling” value in [5] (25 mg/kg alone) is on record as “still have leg swelling on one side”. In addition, the arthritis-related proteins result in [9] (LA25 (25 mg/kg)) and in [9] (LA50 (50 mg/kg)) was “improvement” in each case. For the same compound, the “cytotoxic effects, cell viability (MTT)” value in series [10] is on record as “no cytotoxic effects”. The “tolerability / general toxicity” value in series [6] (CIA mice, throughout the experimental period) is recorded as “well-tolerated”. In addition, the “inflammatory condition induced by carrageenan” value in series [11] is “effectively mitigate”.
